# Results taken from patent US20250136584A1, “Benzimidazole Or Azabenzimidazole Compound, Preparation Method Therefor And Use Thereof” (Chengdu Di'Ao Jiuhong Pharmaceutical Factory, priority 2022, published 2025).
# Tests used:
# GLP1R = GLP1R (Homo sapiens, UniProt P43220); test: Agonist activity on GLP1R/CRE-LUC HEK293 cells (luciferase reporter, ONE-Glo); format: cell-based; details: for EC50: GLP1R/CRE-LUC HEK293 cells, 6 hours incubation, chemiluminescence signal; for activity compared with comparative example compounds PF-06882961, DB02, DB03 and DB06: from Table 1, also much higher than DB04 and DB05
# Method: Logarithmically growing GLP1R/CRE-LUC HEK293 cells (purchased from Nanjing Cobioer) were digested, the digested cells were re-suspended in a DMEM+10% FBS culture medium, and a cell density was adjusted to be 3.5*10^5/mL. The cell solution was added into a 96-well cell culture plate by 100 µL/well, and the plate was cultured overnight in an incubator (37° C., 5% CO2).
# A compound was dissolved with DMSO to prepare a storage solution at an initial concentration of 10 mM, an initial concentration of the small molecular compound was 0.2 mM, and the compound was diluted by 3 times and 10 points were diluted, while the 11th point was DMSO. Another 96-well plate was taken, added with 95 μL of cell culture solution (DMEM+10% FBS) in each well, then added with 5 μL of to-be-tested samples at different concentrations in each well, mixed evenly, and then added with 11 μL of to-be-tested samples at different concentrations in each well of the cell culture plate, and each sample had two wells. The culture plate was incubated in an incubator for 6 hours (37° C., […]). The 96-well cell culture plate was taken out, added with 100 μL of ONE-Glo™ reagent in each well, and incubated at room temperature for 10 minutes, and a chemiluminescence signal value was measured with an enzyme-labeled instrument. Data were processed and analyzed by Microsoft Excel and Graphpad Prism6 to obtain an EC50 value of the compound.
# hERG potassium channel = biological target: T1, hERG potassium channel (Homo sapiens, UniProt Q12809); test: hERG test, patch clamp on HEK-293 cells stably expressing hERG potassium channel; format: cell-based; details: HEK-293 cell line stably expressing hERG, read-out: IC50 (μM) of inhibitory effect on hERG potassium channel current
# T1 construct: host or cells: HEK-293 stably expressing hERG
# Method: Test object: influences of compounds on an hERG potassium channel current were tested by a full-automatic patch clamp method.
# • (1) An HEK-293 cell line stably expressing an hERG potassium channel was adopted, and hERG potassium channel cells were purchased from Creacell Company. • (2) The HEK-293 cell line stably expressing the hERG potassium channel was cultured in a DMEM culture medium containing 10% fetal bovine serum and 0.8 mg/mL G418 at 37° C. under a carbon dioxide concentration of 5%. • (3) Cell passage: the old culture medium was removed, and the cells were washed once with PBS, then added with 1 mL of TrypLE™ Express solution, and incubated at 37° C. for about 0.5 minutes. When the cells were separated from a dish bottom, about 5 mL of complete culture medium preheated at 37° C. was added. A cell suspension was gently blown with a straw to separate the aggregated cells. The cell suspension was transferred to a sterile centrifuge tube and centrifuged at 1000 rpm for 5 minutes to collect the cells. In amplification or maintenance of culture, the cells were inoculated into a 6 cm cell culture dish, and the number of cells inoculated into each cell culture dish was 2.5×10^5 cells (final volume: 5 mL). In order to maintain an electrophysiological activity of cells, a cell density should not exceed 80%. • (4) In patch clamp detection, before the test, the cells were separated by TrypLE™ Express, and 4×10^3 cells were spread on a cover slip and cultured in a 24-well plate (final volume: 500 μL). After 18 hours, the test was carried out for detection. Data analysis:
# A current after an effect of each drug concentration and a blank control current
# were standardized first, and then an inhibition rate
# corresponding to each drug concentration was calculated. A mean number and a standard error were calculated for each concentration, and a semi-inhibitory concentration of each compound was calculated by the following equation: […]
# A dosage-dependent effect was nonlinearly fitted by the above equation, wherein C represented a concentration of a test sample, IC50 represented a semi-inhibitory concentration, and h represented a Hill coefficient. Curve fitting and IC50 calculation were completed by IGOR software.
# hGLP1R mice = test: Glucose tolerance test in hGLP1R mice after single oral administration; format: in vivo; details: 1 mg/kg oral once; for onset of blood glucose reduction compared with comparative example compound DB05 / blood glucose reduction effect compared with comparative example compound DB05: FIG. 1 and FIG. 2; for blood glucose reduction effect compared with PF-06882961: glucose 2 g/kg i.p. 60 minutes later; for blood glucose reduction effect compared with PF-06882961 / blood glucose reduction effect compared with comparative example compound DB05: blood glucose curves and AUC (0 to 120 minutes)
# Method: Genetically engineered hGLP1R mice, male, purchased from Biocytogen Jiangsu Gene Biotechnology Co., Ltd., were fasted overnight before the glucose tolerance test (IPTGG), without water deprivation. A solvent or corresponding compound was orally administered once, a glucose solution (2 g/kg) was intraperitoneally injected 60 minutes after administration, and a blood glucose value before administration of glucose (equivalent to a blood glucose value of 0 minute) and blood glucose values 15 minutes, 30 minutes, 60 minutes and 120 minutes after administration of glucose were measured. The solvent was 5% DMSO+40% PEG400+55% physiological saline, and a dosage of the compound was 1 mg/kg (n=3).
# Chain of GLP1R (P43220 24-463): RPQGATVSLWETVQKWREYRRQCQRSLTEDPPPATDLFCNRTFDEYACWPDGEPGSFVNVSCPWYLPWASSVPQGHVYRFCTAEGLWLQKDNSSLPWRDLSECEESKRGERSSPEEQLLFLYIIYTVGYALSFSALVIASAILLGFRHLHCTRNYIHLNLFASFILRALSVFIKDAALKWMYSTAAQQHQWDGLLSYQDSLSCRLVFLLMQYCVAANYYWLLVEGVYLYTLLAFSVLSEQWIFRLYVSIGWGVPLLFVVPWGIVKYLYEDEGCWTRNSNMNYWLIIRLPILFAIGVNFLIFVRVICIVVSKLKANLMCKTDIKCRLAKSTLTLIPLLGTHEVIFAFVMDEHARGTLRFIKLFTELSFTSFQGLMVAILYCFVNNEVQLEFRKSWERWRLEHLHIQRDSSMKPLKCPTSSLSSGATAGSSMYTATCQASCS
# T1 sequence (Q12809 whole entry): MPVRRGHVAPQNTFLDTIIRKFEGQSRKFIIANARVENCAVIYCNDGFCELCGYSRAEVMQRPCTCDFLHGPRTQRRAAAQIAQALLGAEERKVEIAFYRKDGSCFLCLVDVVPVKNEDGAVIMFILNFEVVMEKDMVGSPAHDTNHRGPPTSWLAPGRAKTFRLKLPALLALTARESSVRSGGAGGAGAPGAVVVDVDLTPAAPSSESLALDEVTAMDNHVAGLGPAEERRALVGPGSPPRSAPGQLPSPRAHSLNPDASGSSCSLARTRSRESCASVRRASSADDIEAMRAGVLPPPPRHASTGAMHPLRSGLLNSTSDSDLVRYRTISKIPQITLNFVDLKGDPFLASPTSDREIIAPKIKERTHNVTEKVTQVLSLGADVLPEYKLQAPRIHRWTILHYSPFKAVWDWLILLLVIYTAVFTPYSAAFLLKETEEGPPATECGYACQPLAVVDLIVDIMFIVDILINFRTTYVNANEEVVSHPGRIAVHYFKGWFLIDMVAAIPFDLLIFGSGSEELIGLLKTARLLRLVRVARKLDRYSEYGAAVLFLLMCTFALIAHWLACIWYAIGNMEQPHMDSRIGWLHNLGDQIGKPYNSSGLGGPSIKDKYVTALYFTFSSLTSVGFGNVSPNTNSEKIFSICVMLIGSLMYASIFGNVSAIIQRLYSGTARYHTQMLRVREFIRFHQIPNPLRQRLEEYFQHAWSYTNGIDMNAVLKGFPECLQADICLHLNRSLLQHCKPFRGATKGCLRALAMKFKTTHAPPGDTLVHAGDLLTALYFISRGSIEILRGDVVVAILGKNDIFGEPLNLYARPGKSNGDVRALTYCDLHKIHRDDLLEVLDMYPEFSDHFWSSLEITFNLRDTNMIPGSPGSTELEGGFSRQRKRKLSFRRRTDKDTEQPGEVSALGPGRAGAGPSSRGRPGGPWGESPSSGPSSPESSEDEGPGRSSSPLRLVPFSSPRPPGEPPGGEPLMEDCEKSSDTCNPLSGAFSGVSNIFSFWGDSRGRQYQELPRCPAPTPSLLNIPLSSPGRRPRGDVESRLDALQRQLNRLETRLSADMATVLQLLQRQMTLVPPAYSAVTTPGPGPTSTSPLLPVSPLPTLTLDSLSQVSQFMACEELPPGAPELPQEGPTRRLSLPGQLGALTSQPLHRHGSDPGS
EC50 (GLP1R) [nM],"activity compared with comparative example compounds PF-06882961, DB02, DB03 and DB06 (GLP1R)",SMILES,other results
114,–,O=C(O)c1ccc2nc(CC3CCN(c4cccc(OCc5ccc(Cl)c6ccoc56)n4)CC3)n(C[C@@H]3CCO3)c2c1 [Compound 1],–
101,–,O=C(O)c1ccc2nc(CC3=CCN(c4cccc(OCc5ccc(Cl)c6ccoc56)n4)CC3)n(C[C@@H]3CCO3)c2c1 [Compound 2],–
65.1,–,N#Cc1ccc(COc2cccc(N3CCC(Cc4nc5ccc(C(=O)O)cc5n4C[C@@H]4CCO4)CC3)n2)c2occc12 [Compound 3],–
20.9,–,O=C(O)c1ccc2nc(CC3CC=C(c4cccc(OCc5ccc(Cl)c6ccoc56)n4)CC3)n(C[C@@H]3CCO3)c2c1 (stereo partly drawn) [Compound 7],IC50 (hERG potassium channel): > 30 µM
13.6,higher,O=C(O)c1ccc2nc(CN3CC=C(c4cccc(OCc5cccc6c5oc5ccccc56)n4)CC3)n(C[C@@H]3CCO3)c2c1 [Compound 13],–
6.76,higher,O=C(O)c1ccc2nc(CN3CC=C(c4cccc(OCc5cccc6c5oc5ccccc56)n4)CC3)n(C[C@@H]3CCO3)c2n1 [Compound 14],–
25.8,–,O=C(O)c1ccc2nc(CC3CC=C(c4cccc(OCc5cccc6c5oc5ccccc56)n4)CC3)n(C[C@@H]3CCO3)c2c1 (stereo partly drawn) [Compound 15],–
3.2,higher,N#Cc1ccc(COc2cccc(-c3ccc(Cc4nc5ccc(C(=O)O)cc5n4C[C@@H]4CCO4)c(F)c3)n2)c2occc12 [Compound 19],onset of blood glucose reduction compared with comparative example compound DB05 (hGLP1R mice): took effect more quickly; blood glucose reduction effect compared with PF-06882961 (hGLP1R mice): significantly better; blood glucose reduction effect compared with comparative example compound DB05 (hGLP1R mice): significantly better
11.5,higher,O=C(O)c1ccc2nc(Cc3cc(F)c(-c4cccc(OCc5ccc(Cl)c6ccoc56)n4)cc3F)n(C[C@@H]3CCO3)c2c1 [Compound 25],–
7.53,higher,O=C(O)c1ccc2nc(Cc3ccc(-c4cccc(OCc5ccc(Cl)c6ccoc56)n4)cc3F)n(C[C@@H]3CCO3)c2n1 [Compound 38],onset of blood glucose reduction compared with comparative example compound DB05 (hGLP1R mice): took effect more quickly; blood glucose reduction effect compared with PF-06882961 (hGLP1R mice): significantly better; blood glucose reduction effect compared with comparative example compound DB05 (hGLP1R mice): significantly better
–,–,O=C(O)c1ccc2nc(Cc3ccc(-c4cccc(OCc5cccc6c5oc5ccccc56)n4)cc3F)n(C[C@@H]3CCO3)c2c1 [Compound 61],onset of blood glucose reduction compared with comparative example compound DB05 (hGLP1R mice): took effect more quickly; blood glucose reduction effect compared with PF-06882961 (hGLP1R mice): significantly better; blood glucose reduction effect compared with comparative example compound DB05 (hGLP1R mice): significantly better
1.97,higher,N#Cc1ccc(COc2cccc(-c3ccc(Cc4nc5ccc(C(=O)O)nc5n4C[C@@H]4CCO4)c(F)c3)n2)c2occc12 [Compound 67],–
–,–,O=C(O)c1ccc2nc(Cc3ccc(-c4cccc(OCc5ccc(F)c6ccoc56)n4)cc3F)n(C[C@@H]3CCO3)c2c1 [Compound 87],IC50 (hERG potassium channel): > 30 µM
0.76,higher,O=C(O)c1ccc2nc(Cc3ccc(-c4cccc(OCc5ccc(Cl)c6ccoc56)n4)cc3F)n(C[C@@H]3CCO3)c2c1F [Compound 91],–
1.76,higher,O=C(O)c1ccc2nc(Cc3ccc(-c4cccc(OCc5ccc(Cl)c6cc(F)oc56)n4)cc3F)n(C[C@@H]3CCO3)c2c1F [Compound 92],–
2.33,higher,O=C(O)c1ccc2nc(Cc3ccc(-c4nc(OCc5ccc(Cl)c6ccoc56)ccc4F)cc3F)n(C[C@@H]3CCO3)c2c1 [Compound 95],–
3.02,higher,O=C(O)c1ccc2nc(Cc3ccc(-c4nc(OCc5ccc(Cl)c6ccoc56)c(F)cc4F)cc3F)n(C[C@@H]3CCO3)c2c1 [Compound 96],–
7.57,higher,O=C(O)c1ccc2nc(Cc3ccc(-c4ccc(F)c(OCc5cccc6c5oc5ccccc56)n4)cc3F)n(C[C@@H]3CCO3)c2c1 [Compound 97],–
0.69,higher,O=C(O)c1ccc2nc(Cc3c(F)cc(-c4cccc(OCc5ccc(Cl)c6ccoc56)n4)cc3F)n(C[C@@H]3CCO3)c2c1 [Compound 101],–
9.1,higher,Cc1cc2c(Cl)ccc(COc3cccc(-c4ccc(Cc5nc6ccc(C(=O)O)cc6n5C[C@@H]5CCO5)c(F)c4)n3)c2o1 [Compound 102],–
1.17,higher,O=C(O)c1ccc2nc(Cc3ccc(-c4ccc(F)c(OCc5ccc(F)c6ccoc56)n4)cc3F)n(C[C@@H]3CCO3)c2c1 [Compound 103],–
1.76,higher,O=C(O)c1ccc2nc(Cc3ccc(-c4ccc(F)c(OCc5ccc(F)c6cc(Cl)oc56)n4)cc3F)n(C[C@@H]3CCO3)c2c1 [Compound 104],IC50 (hERG potassium channel): > 30 µM
1.09,higher,O=C(O)c1cc(F)c2nc(Cc3ccc(-c4cccc(OCc5ccc(Cl)c6ccoc56)n4)cc3F)n(C[C@@H]3CCO3)c2c1 [Compound 105],–
5.87,higher,O=C(O)c1ccc2nc(CC3CC=C(c4ccc(F)c(OCc5ccc(Cl)c6ccoc56)n4)CC3)n(C[C@@H]3CCO3)c2c1 (stereo partly drawn) [Compound 106],blood glucose reduction effect compared with PF-06882961 (hGLP1R mice): significantly better
1.9,higher,O=C(O)c1ccc2nc(CC3CC=C(c4ccc(F)c(OCc5ccc(Cl)c6cc(Cl)oc56)n4)CC3)n(C[C@@H]3CCO3)c2c1 (stereo partly drawn) [Compound 107],blood glucose reduction effect compared with PF-06882961 (hGLP1R mice): significantly better
3.11,higher,O=C(O)c1ccc2nc(CC3CC=C(c4cccc(OCc5ccc(Cl)c6cc(Cl)oc56)n4)CC3)n(C[C@@H]3CCO3)c2c1 (stereo partly drawn) [Compound 108],–
13.6,–,"O=C(O)c1ccc2nc(CN3CC=C(c4cccc(OCc5ccc(Cl)c6ccoc56)n4)CC3)n(C[C@@H]3CCO3)c2c1 [DB02, reference compound]",–
275,–,"COCCn1c(Cc2ccc(-c3cccc(OCc4ccc(C#N)c5ccoc45)n3)cc2F)nc2ccc(C(=O)O)cc21 [DB04, reference compound]",–
312,–,"COCCn1c(Cc2ccc(-c3cccc(OCc4ccc(Cl)c5ccoc45)n3)cc2F)nc2ccc(C(=O)O)cc21 [DB05, reference compound]",–
